The source of these data is patent US8597904B2, “Pharmaceutical compositions for the treatment of conditions responsive to proteasome inhibition” (priority 2007, dated 2013).

One experiment has as its system TH-MYCN transgenic mouse. Put plainly: chemoprevention in TH-MYCN mouse model of human neuroblastoma. Type of experiment: in vivo. Particulars: homozygous mice, treatment from week 4 or 5, vs untreated mice. From the text:
The TH-MYCN transgenic mouse is a well-established neuroblastoma mouse model (Hansfored, et al. 2004. PNAS 101(34):12664-12669; Weiss, et al. 2007. Cancer Res 67(19):9435-9442; Weiss, et al. 2000. Cancer Res 6″2483-2487, each of which is incorporated herein by reference in its entirety). The tumors are caused by targeted expression of MYCN to the neural crest under the control of the rat tyrosine hydroxylase promoter, where the mice develop a tumor phenotype that closely resembles the human disease. The tumors in this strain of mouse generally develop in the abdominal and thoracic areas. TH-MYCN breeder pairs are supplied as hemizygote (129×1/SvJ-Tg(TH-MYCN)41Waw) and a wild type mate (129×1/SvJ).
Treatment regimen is similar to that described in Example 16. Test compounds are administered to homozygous mice at a dose that is developed based upon the results of the initial dose and toxicity study (Example 15). Two to four doses per compound are administered by i.p. and/or i.v. methods into homozygous mice at week 4 or 5 (in advance of tumor development, which occurs closer to week 7). Vehicle is delivered as a control. Further doses are administered every 72 hours thereafter for 3 to 6 weeks. Between eight to twelve mice are tested in the study for administration of each compound. […] At the conclusion of the study, the mice are sacrificed and tumor size and number of tumors are assessed.

Experiment [1] concerns the target T1, human erythrocyte 20S proteasomes, caspase-like activity (Homo sapiens, UniProt P28072).
T1 construct: which contains human erythrocyte 20S proteasomes; purchased BIOMOL International AK-740; host or cells: human erythrocytes
Briefly: 20S Proteasome Assay Kit, Z-LLE-AMC substrate. Type of experiment: biochemical. The method, then:
The eukaryotic 20S proteasome contains three catalytic subunits (β1, β2, and (β5) conferring caspase-like, trypsin-like and chymotrypsin-like proteolytic activities, respectively (Borissenko and Groll. 2007. Chem. Rev. 107:687-717, which is incorporated herein by reference in its entirety). Syringolin A was tested as a proteasome inhibitor using the 20S Proteasome Assay Kit for Drug Discovery AK-740 (BIOMOL® International, Plymouth Meeting, PA, USA), which contains human erythrocyte 20S proteasomes, in a 96-well microtiter plate. The fluorogenic substrates Suc-LLVY-AMC, Boc-LRR-AMC, and Z-LLE-AMC (BIOMOL® International) were used to monitor chymotrypsin-like, trypsin-like, and caspase-like activities, respectively. […] The release of free AMC (7-amino-4-methylcoumarin) at 37° C. was monitored with an MWGt Sirius HT fluorescence microplate reader (BIO-TEK® Instruments) equipped with a 360 nm excitation and a 460 nm emission filter. Proteolytic activities were measured as the increase in relative fluorescence units (RFU) over time (FIG. 7A-C). […] The initial velocities (vi) were determined from the time derivative of these curves and plotted versus the corresponding inhibitor concentration ([I]). […] The rate of covalent inhibition (kassociation), which equals kobs/[I] was calculated over the range of inhibitor concentrations given in parentheses in FIG. 7D. […]

On to `CCCCCCC/C=C/C=C/C(=O)N[C@H](C(=O)N[C@H]1C[C@@H](O)CCNC(=O)/C=C/[C@H](C)NC1=O)[C@@H](C)O` [glidobactin A], for which the tumor formation result in the experiment with TH-MYCN transgenic mouse was “fewer or no tumors”. The “inhibition of caspase-like activity” value in experiment [1] (concentrations tested up to 20 μM) is recorded as “not inhibited”.
As to `CC(C)[C@H](NC(=O)N[C@H](C(=O)N[C@H]1/C=C/CCNC(=O)/C=C/[C@H](C(C)C)NC1=O)C(C)C)C(=O)O` [syringolin A], the tumor formation entry in the experiment with TH-MYCN transgenic mouse is recorded as “fewer or no tumors”. Moreover, the “inhibition of caspase-like activity” value in experiment [1] (37° C., 100 μM Z-LLE-AMC) is “inhibited”.
